{"source": "paper PMC6440464", "about": "(PeerJ, 2019)", "assay": "Stability of the analytes in rat plasma QC samples at different storage conditions", "format": "in vitro ADME", "settings": "for Post-preparation stability (4℃ for 24 h) Measured Conc.: extracted plasma samples in auto sampler rack; for Post-preparation stability (4℃ for 24 h) Measured Conc. / Free-thaw stability (3 free-thaw cycles) Measured Conc. / Long-term stability (-80℃ for 15 d) Measured Conc. / Short-term stability (25℃ for 12 h) Measured Conc.: n=5; for Free-thaw stability, Test Conc., AV / Free-thaw stability, Test Conc. / Post-preparation stability, Test Conc., AV / Post-preparation stability, Test Conc. / Short-term stability, Test Conc., AV / Short-term stability, Test Conc. / Long-term stability, Test Conc., AV / Long-term stability, Test Conc.: plasma; for Free-thaw stability, Test Conc., AV / Free-thaw stability, Test Conc.: 3 free-thaw cycles; for Free-thaw stability, Test Conc., AV / Post-preparation stability, Test Conc., AV / Short-term stability, Test Conc., AV / Long-term stability, Test Conc., AV: AV of 5 replicates; for Free-thaw stability, Test Conc. / Post-preparation stability, Test Conc. / Short-term stability, Test Conc. / Long-term stability, Test Conc.: single replicates NO.1-NO.5, listed as Quercetin (Qr); for Post-preparation stability, Test Conc., AV / Post-preparation stability, Test Conc.: 4℃ for 24 h; for Short-term stability, Test Conc., AV / Short-term stability, Test Conc.: 25℃ for 12 h; for Long-term stability, Test Conc., AV / Long-term stability, Test Conc.: -80℃ for 15 d; for Free-thaw stability (3 free-thaw cycles) Measured Conc. / Long-term stability (-80℃ for 15 d) Measured Conc. / Short-term stability (25℃ for 12 h) Measured Conc.: rat plasma", "description": "The stabilities of Qr, IQ, and QG in plasma were assessed by analyzing QC samples at different storage conditions. The stabilities of three flavonoids in plasma were studied by analyzing three concentration levels of QC samples (n = 5) at room temperature (25 °C) for 12 h, at long-term storage (−80 °C for 15 days), after three freeze (−80 °C) and thaw (room temperature) cycles, and at auto sampler rack storage (4 °C for 24 h).", "key": {"[1]": {"settings": "high QC, nominal 8400.0 (Qr), 976.0 (IQ), 10000.0 (QG) ng/mL"}, "[2]": {"settings": "low QC, nominal 65.6 (Qr), 48.8 (IQ), 100.0 (QG) ng/mL"}, "[3]": {"settings": "medium QC, nominal 525.0 (Qr), 244.0 (IQ), 1000.0 (QG) ng/mL"}}, "note": "“And” between values parts separate entries of the source, which are not always exact repeats. Identical values can stand only once.", "data": [{"compound": "O=c1c(O)c(-c2ccc(O)c(O)c2)oc2cc(O)cc(O)c12", "note": "[Qr, Quercetin]", "values": [{"measurement": "Post-preparation stability (4℃ for 24 h) Measured Conc.", "setting": "[1]", "value": "7642.7 ± 675.6", "unit": "ng/mL"}, {"measurement": "Post-preparation stability (4℃ for 24 h) Measured Conc.", "setting": "[2]", "value": "61.0 ± 4.5", "unit": "ng/mL"}, {"measurement": "Post-preparation stability (4℃ for 24 h) Measured Conc.", "value": "526.3 ± 60.5", "unit": "ng/mL"}, {"measurement": "Free-thaw stability, Test Conc., AV", "setting": "nominal Conc. 65.63 ng/mL", "value": 65.26, "unit": "ng/mL"}, {"measurement": "Free-thaw stability, Test Conc.", "setting": "nominal Conc. 65.63 ng/mL", "value": "66.42 ng/mL and 58.78 ng/mL and 57.77 ng/mL and 73.55 ng/mL and 69.78 ng/mL"}, {"measurement": "Free-thaw stability, Test Conc., AV", "setting": "nominal Conc. 525.00 ng/mL", "value": 511.91, "unit": "ng/mL"}, {"measurement": "Free-thaw stability, Test Conc.", "setting": "nominal Conc. 525.00 ng/mL", "value": "492.92 ng/mL and 484.10 ng/mL and 471.66 ng/mL and 550.36 ng/mL and 560.49 ng/mL"}, {"measurement": "Free-thaw stability, Test Conc., AV", "setting": "nominal Conc. 8400.00 ng/mL", "value": 8631.34, "unit": "ng/mL"}, {"measurement": "Free-thaw stability, Test Conc.", "setting": "nominal Conc. 8400.00 ng/mL", "value": "7999.32 ng/mL and 7943.88 ng/mL and 8238.72 ng/mL and 9682.68 ng/mL and 9292.08 ng/mL"}, {"measurement": "Post-preparation stability, Test Conc., AV", "setting": "nominal Conc. 65.63 ng/mL", "value": 61.04, "unit": "ng/mL"}, {"measurement": "Post-preparation stability, Test Conc.", "setting": "nominal Conc. 65.63 ng/mL", "value": "58.85 ng/mL and 54.07 ng/mL and 64.70 ng/mL and 64.32 ng/mL and 63.25 ng/mL"}, {"measurement": "Post-preparation stability, Test Conc., AV", "setting": "nominal Conc. 525.00 ng/mL", "value": 526.26, "unit": "ng/mL"}, {"measurement": "Post-preparation stability, Test Conc.", "setting": "nominal Conc. 525.00 ng/mL", "value": "568.94 ng/mL and 459.48 ng/mL and 463.10 ng/mL and 552.93 ng/mL and 586.85 ng/mL"}, {"measurement": "Post-preparation stability, Test Conc., AV", "setting": "nominal Conc. 8400.00 ng/mL", "value": 7642.66, "unit": "ng/mL"}, {"measurement": "Post-preparation stability, Test Conc.", "setting": "nominal Conc. 8400.00 ng/mL", "value": "6882.12 ng/mL and 7943.04 ng/mL and 7529.76 ng/mL and 8629.32 ng/mL and 7229.04 ng/mL"}, {"measurement": "Short-term stability, Test Conc., AV", "setting": "nominal Conc. 65.63 ng/mL", "value": 60.80, "unit": "ng/mL"}, {"measurement": "Short-term stability, Test Conc.", "setting": "nominal Conc. 65.63 ng/mL", "value": "57.16 ng/mL and 57.07 ng/mL and 64.40 ng/mL and 62.26 ng/mL and 63.12 ng/mL"}, {"measurement": "Short-term stability, Test Conc., AV", "setting": "nominal Conc. 525.00 ng/mL", "value": 474.02, "unit": "ng/mL"}, {"measurement": "Short-term stability, Test Conc.", "setting": "nominal Conc. 525.00 ng/mL", "value": "478.01 ng/mL and 472.87 ng/mL and 443.05 ng/mL and 442.10 ng/mL and 534.08 ng/mL"}, {"measurement": "Short-term stability, Test Conc., AV", "setting": "nominal Conc. 8400.00 ng/mL", "value": 7949.42, "unit": "ng/mL"}, {"measurement": "Short-term stability, Test Conc.", "setting": "nominal Conc. 8400.00 ng/mL", "value": "8294.16 ng/mL and 7882.56 ng/mL and 8019.48 ng/mL and 7925.40 ng/mL and 7625.52 ng/mL"}, {"measurement": "Long-term stability, Test Conc., AV", "setting": "nominal Conc. 65.63 ng/mL", "value": 59.99, "unit": "ng/mL"}, {"measurement": "Long-term stability, Test Conc.", "setting": "nominal Conc. 65.63 ng/mL", "value": "54.24 ng/mL and 60.01 ng/mL and 62.03 ng/mL and 66.54 ng/mL and 57.14 ng/mL"}, {"measurement": "Long-term stability, Test Conc., AV", "setting": "nominal Conc. 525.00 ng/mL", "value": 500.71, "unit": "ng/mL"}, {"measurement": "Long-term stability, Test Conc.", "setting": "nominal Conc. 525.00 ng/mL", "value": "493.55 ng/mL and 501.01 ng/mL and 547.68 ng/mL and 448.04 ng/mL and 513.29 ng/mL"}, {"measurement": "Long-term stability, Test Conc., AV", "setting": "nominal Conc. 8400.00 ng/mL", "value": 7982.86, "unit": "ng/mL"}, {"measurement": "Long-term stability, Test Conc.", "setting": "nominal Conc. 8400.00 ng/mL", "value": "7842.24 ng/mL and 9005.64 ng/mL and 8321.88 ng/mL and 7922.88 ng/mL and 6821.64 ng/mL"}, {"measurement": "Free-thaw stability (3 free-thaw cycles) Measured Conc.", "setting": "[1]", "value": "8631.3 ± 801.3", "unit": "ng/mL"}, {"measurement": "Long-term stability (-80℃ for 15 d) Measured Conc.", "setting": "[1]", "value": "7982.9 ± 795.7", "unit": "ng/mL"}, {"measurement": "Short-term stability (25℃ for 12 h) Measured Conc.", "setting": "[1]", "value": "7949.4 ± 241.7", "unit": "ng/mL"}, {"measurement": "Free-thaw stability (3 free-thaw cycles) Measured Conc.", "setting": "[2]", "value": "65.3 ± 6.9", "unit": "ng/mL"}, {"measurement": "Long-term stability (-80℃ for 15 d) Measured Conc.", "setting": "[2]", "value": "60.0 ± 4.7", "unit": "ng/mL"}, {"measurement": "Short-term stability (25℃ for 12 h) Measured Conc.", "setting": "[2]", "value": "60.8 ± 3.5", "unit": "ng/mL"}, {"measurement": "Free-thaw stability (3 free-thaw cycles) Measured Conc.", "setting": "[3]", "value": "511.9 ± 40.6", "unit": "ng/mL"}, {"measurement": "Long-term stability (-80℃ for 15 d) Measured Conc.", "setting": "[3]", "value": "500.7 ± 36.0", "unit": "ng/mL"}, {"measurement": "Short-term stability (25℃ for 12 h) Measured Conc.", "setting": "[3]", "value": "474.0 ± 37.4", "unit": "ng/mL"}]}]}
